Measurements as given in ChEMBL document CHEMBL1201862, “PubChem BioAssay data set” (2004).
Activity calls are given as the source filed them.

What was measured:
CAAX prenyl protease 1 = biological target: T1, CAAX prenyl protease 1 (Saccharomyces cerevisiae S288c, UniProt P47154); assay: Ste24 protease inhibitors, dose response, biochemical, S. cerevisiae, plate reader, cherry-pick (AID 488815)
T1 sequence (P47154 whole entry): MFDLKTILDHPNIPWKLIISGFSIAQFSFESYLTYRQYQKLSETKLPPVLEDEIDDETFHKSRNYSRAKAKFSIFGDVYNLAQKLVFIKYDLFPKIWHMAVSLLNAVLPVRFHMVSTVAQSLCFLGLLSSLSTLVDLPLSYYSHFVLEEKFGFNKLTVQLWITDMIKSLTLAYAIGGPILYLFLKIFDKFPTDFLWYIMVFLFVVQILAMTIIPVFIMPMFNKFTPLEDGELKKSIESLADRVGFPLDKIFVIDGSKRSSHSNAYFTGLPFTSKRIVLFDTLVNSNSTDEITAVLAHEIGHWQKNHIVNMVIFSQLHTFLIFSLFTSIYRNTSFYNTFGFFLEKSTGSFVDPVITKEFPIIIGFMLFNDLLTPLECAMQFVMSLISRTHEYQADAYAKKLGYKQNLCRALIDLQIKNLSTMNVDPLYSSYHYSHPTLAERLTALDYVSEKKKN

[1] = C. albicans growth with fluconazole, confirmation, fluorescence, retest (AID 2467); assay type: functional, cell-based
[2] = biological target: T2, DNA repair and recombination protein RAD54-like (Homo sapiens, UniProt Q92698); assay: inhibitors of human RAD54 branch migration, confirmation, biochemical, fluorescence, cherry-picked samples, dose series (AID 651657); assay type: functional
T2 sequence (Q92698 whole entry): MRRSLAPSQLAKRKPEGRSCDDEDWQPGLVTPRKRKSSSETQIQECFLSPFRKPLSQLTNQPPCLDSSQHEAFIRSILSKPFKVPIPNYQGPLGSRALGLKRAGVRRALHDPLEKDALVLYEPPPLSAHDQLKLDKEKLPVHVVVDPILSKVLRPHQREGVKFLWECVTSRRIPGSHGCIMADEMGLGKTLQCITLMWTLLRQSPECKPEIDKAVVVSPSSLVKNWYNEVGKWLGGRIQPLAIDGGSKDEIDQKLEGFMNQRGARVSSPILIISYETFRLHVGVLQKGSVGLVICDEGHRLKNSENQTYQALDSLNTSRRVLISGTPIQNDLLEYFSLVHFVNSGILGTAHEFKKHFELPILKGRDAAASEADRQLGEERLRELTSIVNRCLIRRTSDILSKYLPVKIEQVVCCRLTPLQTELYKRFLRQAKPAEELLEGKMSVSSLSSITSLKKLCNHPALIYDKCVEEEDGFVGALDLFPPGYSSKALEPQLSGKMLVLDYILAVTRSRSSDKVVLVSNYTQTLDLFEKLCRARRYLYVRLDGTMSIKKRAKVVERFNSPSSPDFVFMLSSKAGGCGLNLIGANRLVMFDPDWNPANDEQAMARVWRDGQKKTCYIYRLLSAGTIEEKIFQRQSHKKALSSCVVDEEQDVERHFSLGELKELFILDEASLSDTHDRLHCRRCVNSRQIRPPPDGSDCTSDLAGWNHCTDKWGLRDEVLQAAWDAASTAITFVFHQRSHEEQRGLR

[3] = NIH-3T3 fibroblast cytotoxicity, dose response, cytotoxicity control, cell-based, fluorescence, Alamar Blue, secondary assay (AID 2327); assay type: functional;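 note: NIH-3T3 mouse fibroblasts cultured with fluconazole at 8 µg/mL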
[4] = cytotoxicity toward NIH3T3 fibroblasts, dose response, counter-screen, cell-based, ATP luminescence, mouse fibroblasts (AID 2010); assay type: functional;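 note: cells exposed to compound for about 90 hours before reading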
[5] = growth suppression of PTEN-null colon cells, dose response, cell-based, HCT116 PTEN knockout (AID 1047); assay type: functional;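 note: HCT116 colon tumor cells with PTEN knocked out; cells exposed to compound for 60 hours before readout; potency for loss of cell viability measured by luminescence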
[6] = inhibitors of intracellular T. cruzi replication, confirmation, NIH3T3 host cells, beta-gal luminescence (AID 2044); assay type: functional, cell-based;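 note: intracellular parasites grown in NIH/3T3 mouse fibroblasts as host cells; luminescent beta-galactosidase reporter signal from transgenic T. cruzi replicating inside host cells; inhibitors lower the luminescence signal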
[7] = growth suppression of beta-catenin-knockout colon cells, dose response, cell-based, HCT116, human colon tumor (AID 1045); assay type: functional;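 note: HCT116 colon tumor cells with beta catenin knocked out; cells exposed to compound for 60 hours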
Exodeoxyribonuclease V = biological target: T3, Exodeoxyribonuclease V (Escherichia coli (strain K12), UniProt P04993+P07648+P08394); assay: E. coli RecBCD inhibitors, dose response, counter-screen for AddAB inhibitor project, absorbance, V66 E. coli, mutant T4 phage (AID 492957); assay type: functional, cell-based, Escherichia coli str. K-12 substr. MG1655
T3 sequence (P04993 whole entry): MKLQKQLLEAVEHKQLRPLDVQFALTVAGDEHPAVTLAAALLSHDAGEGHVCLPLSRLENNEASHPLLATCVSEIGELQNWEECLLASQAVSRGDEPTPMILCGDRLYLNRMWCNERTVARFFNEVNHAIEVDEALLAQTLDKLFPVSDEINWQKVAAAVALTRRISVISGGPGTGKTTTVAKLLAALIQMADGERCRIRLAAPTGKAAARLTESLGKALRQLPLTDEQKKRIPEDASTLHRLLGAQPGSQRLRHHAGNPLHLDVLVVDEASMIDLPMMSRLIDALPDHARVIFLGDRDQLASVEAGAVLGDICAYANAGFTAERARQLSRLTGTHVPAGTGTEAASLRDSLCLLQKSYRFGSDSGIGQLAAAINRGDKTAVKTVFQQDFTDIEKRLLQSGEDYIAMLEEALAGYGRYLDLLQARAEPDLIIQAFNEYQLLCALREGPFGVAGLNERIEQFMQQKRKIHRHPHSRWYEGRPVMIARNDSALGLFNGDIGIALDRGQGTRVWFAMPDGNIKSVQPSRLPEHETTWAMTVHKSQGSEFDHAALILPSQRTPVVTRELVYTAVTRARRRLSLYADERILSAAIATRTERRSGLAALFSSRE
T3 sequence (P07648 whole entry): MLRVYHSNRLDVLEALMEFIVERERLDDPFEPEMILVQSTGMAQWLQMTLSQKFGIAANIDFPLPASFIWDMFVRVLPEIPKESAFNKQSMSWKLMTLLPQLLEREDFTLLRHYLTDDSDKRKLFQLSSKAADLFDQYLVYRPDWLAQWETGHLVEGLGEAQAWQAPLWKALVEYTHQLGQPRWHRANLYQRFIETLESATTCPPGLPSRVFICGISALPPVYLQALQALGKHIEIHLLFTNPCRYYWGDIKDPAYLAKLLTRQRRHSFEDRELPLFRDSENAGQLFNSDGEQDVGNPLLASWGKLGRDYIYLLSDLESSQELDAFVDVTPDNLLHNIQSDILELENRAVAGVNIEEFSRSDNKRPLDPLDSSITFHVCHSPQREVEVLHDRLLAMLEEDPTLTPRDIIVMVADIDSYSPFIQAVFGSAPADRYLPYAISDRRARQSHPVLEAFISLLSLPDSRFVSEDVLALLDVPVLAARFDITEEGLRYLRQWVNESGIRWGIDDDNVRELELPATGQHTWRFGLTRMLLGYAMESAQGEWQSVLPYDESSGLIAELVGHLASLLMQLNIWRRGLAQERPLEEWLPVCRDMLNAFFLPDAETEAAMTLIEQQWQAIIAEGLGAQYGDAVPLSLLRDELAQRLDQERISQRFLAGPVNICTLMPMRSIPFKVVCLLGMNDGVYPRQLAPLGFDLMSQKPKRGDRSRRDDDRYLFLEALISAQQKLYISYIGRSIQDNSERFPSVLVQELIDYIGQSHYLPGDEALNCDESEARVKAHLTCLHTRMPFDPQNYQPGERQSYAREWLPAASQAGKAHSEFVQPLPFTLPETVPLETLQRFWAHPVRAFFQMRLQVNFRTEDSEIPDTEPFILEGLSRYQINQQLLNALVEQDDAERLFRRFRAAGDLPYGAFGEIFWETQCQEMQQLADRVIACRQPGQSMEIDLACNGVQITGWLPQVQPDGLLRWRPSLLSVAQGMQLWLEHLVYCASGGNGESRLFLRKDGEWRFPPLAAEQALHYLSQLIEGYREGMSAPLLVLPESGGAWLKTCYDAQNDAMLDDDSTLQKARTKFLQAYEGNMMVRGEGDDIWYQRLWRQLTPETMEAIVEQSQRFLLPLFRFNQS
T3 sequence (P08394 whole entry): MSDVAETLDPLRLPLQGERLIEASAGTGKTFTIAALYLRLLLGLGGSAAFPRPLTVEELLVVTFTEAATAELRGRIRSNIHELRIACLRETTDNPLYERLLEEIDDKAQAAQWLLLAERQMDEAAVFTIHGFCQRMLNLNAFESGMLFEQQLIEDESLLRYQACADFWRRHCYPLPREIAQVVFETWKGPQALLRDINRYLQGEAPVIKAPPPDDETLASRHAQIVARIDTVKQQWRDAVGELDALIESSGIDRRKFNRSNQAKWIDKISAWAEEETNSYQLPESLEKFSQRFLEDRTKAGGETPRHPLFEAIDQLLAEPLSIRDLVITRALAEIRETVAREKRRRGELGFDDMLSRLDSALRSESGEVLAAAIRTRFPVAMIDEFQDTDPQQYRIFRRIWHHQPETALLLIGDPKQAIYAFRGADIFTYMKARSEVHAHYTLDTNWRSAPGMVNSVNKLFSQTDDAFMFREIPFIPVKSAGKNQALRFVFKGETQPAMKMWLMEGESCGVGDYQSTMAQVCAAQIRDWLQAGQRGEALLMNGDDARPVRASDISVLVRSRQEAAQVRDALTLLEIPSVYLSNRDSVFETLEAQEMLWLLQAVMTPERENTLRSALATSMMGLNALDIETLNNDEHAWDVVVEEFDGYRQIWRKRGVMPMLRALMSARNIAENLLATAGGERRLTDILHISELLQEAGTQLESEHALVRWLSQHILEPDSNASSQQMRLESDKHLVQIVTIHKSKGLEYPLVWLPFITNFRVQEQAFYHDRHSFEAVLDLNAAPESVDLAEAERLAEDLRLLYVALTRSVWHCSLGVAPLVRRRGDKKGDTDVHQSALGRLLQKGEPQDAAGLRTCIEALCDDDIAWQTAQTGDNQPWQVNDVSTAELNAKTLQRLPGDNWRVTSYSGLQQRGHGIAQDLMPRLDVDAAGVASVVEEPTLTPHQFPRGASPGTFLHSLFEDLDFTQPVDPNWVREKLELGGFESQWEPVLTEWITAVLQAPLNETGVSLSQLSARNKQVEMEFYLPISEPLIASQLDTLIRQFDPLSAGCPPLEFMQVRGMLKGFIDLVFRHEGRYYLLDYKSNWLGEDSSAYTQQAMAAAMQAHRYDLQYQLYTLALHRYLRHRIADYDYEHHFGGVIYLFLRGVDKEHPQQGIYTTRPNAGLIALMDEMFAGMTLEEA

[8] = Counterscreen for AddAB inhibitors: absorbance-based bacterial cell-based high throughput dose response assay for inhibitors of bacterial viability. [Related pubchem assays (depositor defined):AID435030, AID449728, AID449731, AID488942, AID488955, AID488956]; assay type: functional

| SMILES | AC50 (CAAX prenyl protease 1) | EC50 [1] | AC50 [2] | EC50 [3] | EC50 [4] | EC50 [5] | EC50 [6] | EC50 [7] | IC50 (Exodeoxyribonuclease V) | IC50 [8] |
| --- | --- | --- | --- | --- | --- | --- | --- | --- | --- | --- |
| CCc1nc(Nc2ccncc2)c2oc3ccccc3c2n1 | 5.23 µM (active) | 2.48 µM (active) | 15.5 µM (active) | > 160 µM (inactive) | > 60 µM (not active) | 6.58 µM (active) | 0.6 µM (active) | 6.45 µM (active) | – | – |
| COc1ccccc1/C=C1\SC(=S)N(CCC(=O)NNC(=O)c2ccccc2O)C1=O | – | – | – | – | – | – | – | – | > 119 µM (inactive) | > 119 µM (inactive) |
